Measured values published in US10301284B2, “Therapeutic inhibitory compounds” (LifeSci Pharmaceuticals, Inc., priority 2016, dated 2019).
Like-named read-outs stand apart in the source and are kept apart here.

How the values were obtained:
human Plasma Kallikrein [1] = biological target: T1, human Plasma Kallikrein (Homo sapiens (Human), UniProt P03952); assay: In vitro enzyme inhibition of human plasma kallikrein (Pro-Phe-Arg-AMC cleavage); format: biochemical; conditions: human plasma kallikrein, PFR-AMC substrate, 37° C.; read-out: hPK IC50
T1 sequence (P03952 391-638 limits assumed): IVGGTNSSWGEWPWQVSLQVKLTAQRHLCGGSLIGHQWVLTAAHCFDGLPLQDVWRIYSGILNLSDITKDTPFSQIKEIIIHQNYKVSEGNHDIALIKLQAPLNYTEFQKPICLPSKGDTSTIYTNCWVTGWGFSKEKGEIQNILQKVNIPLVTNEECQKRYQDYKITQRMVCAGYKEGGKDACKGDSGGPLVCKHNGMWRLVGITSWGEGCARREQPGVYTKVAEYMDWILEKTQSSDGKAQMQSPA
T1 sequence (P03952 20-390 partner limits assumed): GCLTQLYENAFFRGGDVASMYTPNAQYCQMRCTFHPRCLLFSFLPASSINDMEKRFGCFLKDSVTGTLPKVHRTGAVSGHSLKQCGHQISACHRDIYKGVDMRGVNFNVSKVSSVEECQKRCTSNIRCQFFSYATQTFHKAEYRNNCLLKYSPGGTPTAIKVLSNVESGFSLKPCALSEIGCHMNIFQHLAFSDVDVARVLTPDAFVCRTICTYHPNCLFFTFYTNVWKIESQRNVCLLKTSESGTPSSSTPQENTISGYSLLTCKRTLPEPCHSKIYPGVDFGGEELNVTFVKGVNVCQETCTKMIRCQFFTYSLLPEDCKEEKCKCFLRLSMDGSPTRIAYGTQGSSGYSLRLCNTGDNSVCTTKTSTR
Outline: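 Human plasma kallikrein preincubated 5 min at 37 °C with compound in 50 mM Tris-HCl pH 7.5, 150 mM NaCl, 0.01% Triton X-100. Reaction started with Pro-Phe-Arg-AMC, fluorescence read every 43 s for 1 h at 37 °C. IC50 from highest mean velocity over 20 reads (~15 min).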

human Plasma Kallikrein [2] = biological target: T1, human Plasma Kallikrein; assay: Human whole blood kallikrein inhibition (ellagic acid-activated human plasma, Z-FR-2-AMC substrate); format: biochemical
Experimental: The ability of the compounds disclosed herein to inhibit human plasma kallikrein activity was quantified according to the procedures below.
All dilutions were prepared in an assay buffer comprising 50 mM Tris-HCl pH 7.2, 150 mM NaCl, and 0.01% Triton X-100.
Human plasma was thawed on ice and centrifuged for 15 min at 4° C. to remove platelets. A 1 mM stock solution of ellagic acid was diluted to 8 μM and mixed with human plasma, after removing platelets, at a ratio of 1:0.8. The mixture of human plasma and ellagic acid was further diluted 32-fold in the assay buffer, to yield the final mixture for use in the inhibition assay.
A 22.5 μL volume of the final mixture of human plasma and ellagic acid was added to a 96-well microwell plate and the plate was incubated for 15 min at 37° C.
The test compound solution was prepared to provide final concentrations of 20 μM, 5 μM, 1.25 μM, 312.5 nM, 78.125 nM, 19.531 nM, 4.883 nM, 1.221 nM, 0.305 nM, and 0.076 nM. Each test compound concentration was tested in duplicates.
In addition to the inhibitor control and test wells, the 96 well assay plate included positive control wells which contain the mixture of human plasma and ellagic acid without test compounds, and background wells which contain neither the mixture of human plasma and ellagic acid nor the test compounds. The total volume of liquid in positive control and background wells was brought up to 35 μL using the assay buffer.
The assay plate containing test compounds mixed with human plasma and ellagic acid and appropriate controls was incubated at 37° C. for 5 min. A 10 mM stock solution of substrate Z-FR-2-AMC was diluted to 133.2 μM in the assay buffer, and 15 μL of the diluted substrate was added to each well, to yield a final substrate concentration of 40 μM in each well. The reagents were mixed by shaking the plate gently for 30 sec.
The enzyme reaction was quantified by immediate kinetic reading of the assay plate using excitation/emission wavelengths of 330 nm/440 nm respectively. Fluorescence intensity was recorded for 60 min, using a time interval of 43 sec.
The inhibition activity of the test compounds were evaluated using the IC50 values, calculated according to the dose-response curve of the test compounds, fitted using the “log(inhibitor)−response(variable slope)” equation in GraphPadPrism software (GraphPad Software, Inc.).
The percentage inhibition (EC50) was calculated using the following equation:
[formula] where, Mean(BG) is the average value of the fluorescence intensity of the background wells and Mean(PC) is the average value of the fluorescence intensity of the positive control wells.

[3] = Pharmacokinetic evaluation, oral exposure in rats; format: in vivo; conditions: rat; male Sprague-Dawley rats, single oral dose 10 mg/kg via oral gavage, plasma; read-out: AUC
Experimental: Pharmacokinetic studies of select compounds were performed to assess the pharmacokinetic properties. Male Sprague-Dawley rats were administered a single oral dose of the test compound at 10 mg/kg (dose concentration: 2 mg/mL, dose volume: 5 ml/kg) via oral gavage. Blood samples were collected via jugular vein at pre-dose, post-dose 5 min, 15 min, 30 min, 1 h, 2 h, 4 h, 6 h, 8 h, 10 h and 24 h, and centrifuged (8000 rpm for 6 minutes at 2-8° C.). The resulting plasma fractions were analyzed by LC/MS/MS to determine the concentration of the test compound.

[4] = human plasma activated with ellagic acid, Z-FR-2-AMC 40 μM, 37° C., read-out: HWB EC50

SMILES | IC50 (human Plasma Kallikrein [1]) | EC50 (human Plasma Kallikrein [2]; [4]) | AUC [3] | EC50 (human Plasma Kallikrein [2])
COc1nn(Cc2ccc3ncc(Cl)cc3c2)cc1C(=O)NCc1c(C)cc(N)nc1C [Example 39, N-((6-amino-2,4-dimethylpyridin-3-yl)methyl)-1-((3-chloroquinolin-6-yl)methyl)-3-methoxy-1H-pyrazole-4-carboxamide] | < 100 nM | < 100 nM | 1000 to 10000 ng·h/mL | –
Cc1cc(N)nc(C)c1CNC(=O)c1cn(Cc2cc(F)c3ncc(Cl)cc3c2)nc1C#N [Example 52, N-((6-amino-2,4-dimethylpyridin-3-yl)methyl)-1-((3-chloro-8-fluoroquinolin-6-yl)methyl)-3-cyano-1H-pyrazole-4-carboxamide] | < 100 nM | < 100 nM | 100 to 1000 ng·h/mL | –
N#Cc1nn(Cc2cc(F)c3ncc(Cl)cc3c2)cc1C(=O)NCc1ccc2c(N)nccc2c1 [Example 54, N-((1-aminoisoquinolin-6-yl)methyl)-1-((3-chloro-8-fluoroquinolin-6-yl)methyl)-3-cyano-1H-pyrazole-4-carboxamide] | < 100 nM | < 100 nM | < 100 ng·h/mL | –
Cc1cc(N)nc(C)c1CNC(=O)c1cn(Cc2cc(C(C)(C)O)c3ncc(Cl)cc3c2)nc1C#N [Example 58, N-((6-amino-2,4-dimethylpyridin-3-yl)methyl)-1-((3-chloro-8-(2-hydroxypropan-2-yl)quinolin-6-yl)methyl)-3-cyano-1H-pyrazole-4-carboxamide] | < 100 nM | < 100 nM | < 100 ng·h/mL | –
CC(C)(O)c1cc(Cn2cc(C(=O)NCc3ccc4c(N)nccc4c3)c(C#N)n2)cc2cc(Cl)cnc12 [Example 59, N-((1-aminoisoquinolin-6-yl)methyl)-1-((3-chloro-8-(2-hydroxypropan-2-yl)quinolin-6-yl)methyl)-3-cyano-1H-pyrazole-4-carboxamide] | < 100 nM | < 100 nM | < 100 ng·h/mL | –
Cc1cnc2c(S(C)(=O)=O)cc(Cn3cc(C(=O)NCc4c(C)cc(N)nc4C)c(C#N)n3)cc2c1 [Example 61, N-((6-amino-2,4-dimethylpyridin-3-yl)methyl)-3-cyano-1-((3-methyl-8-(methylsulfonyl)quinolin-6-yl)methyl)-1H-pyrazole-4-carboxamide] | < 100 nM | < 100 nM | < 100 ng·h/mL | –
Cc1cnc2c(C#N)cc(Cn3cc(C(=O)NCc4c(C)cc(N)nc4C)c(C#N)n3)cc2c1 [Example 62, N-((6-amino-2,4-dimethylpyridin-3-yl)methyl)-3-cyano-1-((8-cyano-3-methylquinolin-6-yl)methyl)-1H-pyrazole-4-carboxamide] | < 100 nM | < 100 nM | < 100 ng·h/mL | –
Cc1cc(N)nc(C)c1CNC(=O)c1cn(Cc2ccc3ncc(C4CC4)cc3c2)nc1C#N [Example 65, N-((6-amino-2,4-dimethylpyridin-3-yl)methyl)-3-cyano-1-((3-cyclopropylquinolin-6-yl)methyl)-1H-pyrazole-4-carboxamide] | < 100 nM | < 100 nM | 100 to 1000 ng·h/mL | –
Cc1nc(N)ccc1CNC(=O)c1cn(Cc2ccc3ncc(C4CC4)cc3c2)nc1C#N [Example 66, N-((6-amino-2-methylpyridin-3-yl)methyl)-3-cyano-1-((3-cyclopropylquinolin-6-yl)methyl)-1H-pyrazole-4-carboxamide] | < 100 nM | < 100 nM | 100 to 1000 ng·h/mL | –
Cc1cnc2c(C(C)(C)O)cc(Cn3ncc(C(=O)NCc4c(C)cc(N)nc4C)c3C#N)cc2c1 [Example 67, N-((6-amino-2,4-dimethylpyridin-3-yl)methyl)-5-cyano-1-((8-(2-hydroxypropan-2-yl)-3-methylquinolin-6-yl)methyl)-1H-pyrazole-4-carboxamide] | 1000 to 10000 nM | < 100 nM | < 100 ng·h/mL | –
Cc1cc(N)nc(C)c1CNC(=O)c1cn(Cc2cc(C#N)c3ncc(Cl)cc3c2)nc1C#N [Example 69, N-((6-amino-2,4-dimethylpyridin-3-yl)methyl)-1-((3-chloro-8-cyanoquinolin-6-yl)methyl)-3-cyano-1H-pyrazole-4-carboxamide] | < 100 nM | < 100 nM | < 100 ng·h/mL | –
Cc1cc(N)nc(C)c1CNC(=O)c1cn(Cc2ccc3ncc(C(F)(F)F)cc3c2)nc1C#N [Example 73, N-((6-amino-2,4-dimethylpyridin-3-yl)methyl)-3-cyano-1-((3-(trifluoromethyl)quinolin-6-yl)methyl)-1H-pyrazole-4-carboxamide] | < 100 nM | < 100 nM | 100 to 1000 ng·h/mL | –
Cc1nc(N)ccc1CNC(=O)c1cn(Cc2ccc3ncc(C(F)(F)F)cc3c2)nc1C#N [Example 74, N-((6-amino-2-methylpyridin-3-yl)methyl)-3-cyano-1-((3-(trifluoromethyl)quinolin-6-yl)methyl)-1H-pyrazole-4-carboxamide] | < 100 nM | < 100 nM | 1000 to 10000 ng·h/mL | –
Cc1cc(N)nc(C)c1CNC(=O)c1nnc(Cc2cc(F)c3ncc(Cl)cc3c2)o1 [Example 75, N-((6-amino-2,4-dimethylpyridin-3-yl)methyl)-5-((3-chloro-8-fluoroquinolin-6-yl)methyl)-1,3,4-oxadiazole-2-carboxamide] | < 100 nM | < 100 nM | 1000 to 10000 ng·h/mL | –
Cc1cnc2c(C(N)=O)cc(Cn3cc(C(=O)NCc4c(C)cc(N)nc4C)c(C#N)n3)cc2c1 [Example 78, 6-((4-(((6-amino-2,4-dimethylpyridin-3-yl)methyl)carbamoyl)-3-cyano-1H-pyrazol-1-yl)methyl)-3-methylquinoline-8-carboxamide] | < 100 nM | < 100 nM | < 100 ng·h/mL | –
Cc1cnc2ccc(Cn3cc(C(=O)NCc4c(C)cc(N)nc4C)c(C#N)n3)cc2c1 [Example 81, N-((6-amino-2,4-dimethylpyridin-3-yl)methyl)-3-cyano-1-((3-methylquinolin-6-yl)methyl)-1H-pyrazole-4-carboxamide] | < 100 nM | < 100 nM | 100 to 1000 ng·h/mL | –
Cc1cnc2ccc(Cn3cc(C(=O)NCc4ccc(N)nc4C)c(C#N)n3)cc2c1 [Example 82, N-((6-amino-2-methylpyridin-3-yl)methyl)-3-cyano-1-((3-methylquinolin-6-yl)methyl)-1H-pyrazole-4-carboxamide] | < 100 nM | < 100 nM | 100 to 1000 ng·h/mL | –
Cc1cc(N)nc(C)c1CNC(=O)c1nn(Cc2ccc3ncc(Cl)cc3c2)nc1C#N [Example 95, N-((6-amino-2,4-dimethylpyridin-3-yl)methyl)-2-((3-chloroquinolin-6-yl)methyl)-5-cyano-2H-1,2,3-triazole-4-carboxamide] | < 100 nM | < 100 nM | 100 to 1000 ng·h/mL | –
Cc1cc(N)nc(C)c1CNC(=O)c1nnc(Cc2ccc3ncc(Cl)cc3c2)[nH]1 [Example 96, N-((6-amino-2,4-dimethylpyridin-3-yl)methyl)-5-((3-chloroquinolin-6-yl)methyl)-4H-1,2,4-triazole-3-carboxamide] | < 100 nM | < 100 nM | > 10000 ng·h/mL | –
Cc1cc(N)nc(C)c1CNC(=O)c1nnc(Cc2ccc3ncc(Cl)cc3c2)n1C [Example 98, N-((6-amino-2,4-dimethylpyridin-3-yl)methyl)-5-((3-chloroquinolin-6-yl)methyl)-4-methyl-4H-1,2,4-triazole-3-carboxamide] | < 100 nM | < 100 nM | 1000 to 10000 ng·h/mL | –
COc1cc2c(C(=O)NCc3c(C)cc(N)nc3C)nn(Cc3ccc4ncc(Cl)cc4c3)c2cn1 [Example 122, N-((6-amino-2,4-dimethylpyridin-3-yl)methyl)-1-((3-chloroquinolin-6-yl)methyl)-5-methoxy-1H-pyrazolo[3,4-c]pyridine-3-carboxamide] | < 100 nM | – | 100 to 1000 ng·h/mL | < 100 nM
